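Where inhibition never reached the appropriate level, the endpoint shown equals the highest concentration tested. Otherwise, values were interpolated linearly from a five-concentration, 48-hour dose response in 96-well plates. GI50: concentration for 50% inhibition of growth.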 The source made the active and inactive calls. Rule as the data show it: active = GI50 up to about 1.1 µM and inactive = higher.
Key:
Experiment in all cases: NCI anticancer screen, dose series, 48 h
UO-31 = test system: UO-31
MDA-MB-435 = test system: MDA-MB-435
NCI-H522 = test system: NCI-H522
MDA-MB-231 = test system: MDA-MB-231
HCT-15 = test system: HCT-15
A549 = test system: A549
CCRF-CEM = test system: CCRF-CEM
OVCAR-3 = test system: OVCAR-3
SF-539 = test system: SF-539
SF-295 = test system: SF-295
M14 = test system: M14
OVCAR-4 = test system: OVCAR-4
Malme-3M = test system: Malme-3M
IGROV-1 = test system: IGROV-1
NCI-H460 = test system: NCI-H460
SF-268 = test system: SF-268
SN12C = test system: SN12C
MCF7 = test system: MCF7
UACC-257 = test system: UACC-257
OVCAR-8 = test system: OVCAR-8

Structure (SMILES) | GI50 (UO-31) | GI50 (MDA-MB-435) | GI50 (NCI-H522) | GI50 (MDA-MB-231) | GI50 (HCT-15) | GI50 (A549) | GI50 (CCRF-CEM) | GI50 (OVCAR-3) | GI50 (SF-539) | GI50 (SF-295) | GI50 (M14) | GI50 (OVCAR-4) | GI50 (Malme-3M) | GI50 (IGROV-1) | GI50 (NCI-H460) | GI50 (SF-268) | GI50 (SN12C) | GI50 (MCF7) | GI50 (UACC-257) | GI50 (OVCAR-8)
COc1ccc(/C=C2\CN(C)C/C(=C\c3ccc(OC)cc3)C2=O)cc1 | > 100 µM (inactive) | > 100 µM (inactive) | > 100 µM (inactive) | > 100 µM (inactive) | > 100 µM | > 100 µM (inactive) | > 100 µM (inactive) | > 100 µM (inactive) | > 100 µM (inactive) | > 100 µM (inactive) | > 100 µM (inactive) | > 100 µM (inactive) | > 100 µM (inactive) | 52.2 µM (inactive) | > 100 µM (inactive) | > 100 µM (inactive) | > 100 µM (inactive) | – | – | –
O=C(NCP(=O)(Oc1ccccc1)Oc1ccccc1)OCc1ccccc1 | > 100 µM (inactive) | > 100 µM (inactive) | 83.6 µM (inactive) | – | > 100 µM | 70.8 µM (inactive) | > 100 µM (inactive) | 55.1 µM (inactive) | – | 42.2 µM (inactive) | > 100 µM (inactive) | 45.3 µM (inactive) | 77.6 µM (inactive) | > 100 µM (inactive) | > 100 µM (inactive) | > 100 µM (inactive) | > 100 µM (inactive) | > 100 µM (inactive) | > 100 µM (inactive) | > 100 µM (inactive)
O=C1C=C(O)C(=Cc2c(O)cc(O)cc2O)C(O)=C1 | > 100 µM (inactive) | – | > 100 µM (inactive) | – | > 100 µM | > 100 µM (inactive) | > 100 µM (inactive) | > 100 µM (inactive) | > 100 µM (inactive) | > 100 µM (inactive) | > 100 µM (inactive) | > 100 µM (inactive) | > 100 µM (inactive) | > 100 µM (inactive) | > 100 µM (inactive) | > 100 µM (inactive) | > 100 µM (inactive) | – | > 100 µM (inactive) | > 100 µM (inactive)
O=C1C/C(Br)=C\c2ccccc2-c2ccccc21 | 2.4 µM (inactive) | – | 0.429 µM (active) | – | 1.56 µM | 8.26 µM (inactive) | 1.06 µM (active) | 2.45 µM (inactive) | 2.16 µM (inactive) | 4.98 µM (inactive) | 2.07 µM (inactive) | 2.53 µM (inactive) | 2.16 µM (inactive) | 3.1 µM (inactive) | 2.86 µM (inactive) | 2.85 µM (inactive) | 2.04 µM (inactive) | – | 4.19 µM (inactive) | 2.19 µM (inactive)
O=C(CCC(=O)Nc1ccc(Cl)cc1)CC(=O)c1ccc2ccccc2c1 | > 100 µM (inactive) | – | > 100 µM (inactive) | – | > 100 µM | > 100 µM (inactive) | > 100 µM (inactive) | > 100 µM (inactive) | > 100 µM (inactive) | > 100 µM (inactive) | > 100 µM (inactive) | > 100 µM (inactive) | > 100 µM (inactive) | > 100 µM (inactive) | > 100 µM (inactive) | > 100 µM (inactive) | > 100 µM (inactive) | – | > 100 µM (inactive) | > 100 µM (inactive)
CC#COP(=O)(OCC)OCC | > 100 µM (inactive) | – | > 100 µM (inactive) | – | > 100 µM | > 100 µM (inactive) | 75 µM (inactive) | > 100 µM (inactive) | > 100 µM (inactive) | > 100 µM (inactive) | > 100 µM (inactive) | > 100 µM (inactive) | > 100 µM (inactive) | > 100 µM (inactive) | > 100 µM (inactive) | > 100 µM (inactive) | > 100 µM (inactive) | – | > 100 µM (inactive) | > 100 µM (inactive)
CCOC(=O)N(c1ccccc1)c1cc(=O)n2ccccc2n1 | > 100 µM (inactive) | > 100 µM (inactive) | – | > 100 µM (inactive) | > 100 µM | > 100 µM (inactive) | > 100 µM (inactive) | > 100 µM (inactive) | > 100 µM (inactive) | > 100 µM (inactive) | – | > 100 µM (inactive) | > 100 µM (inactive) | > 100 µM (inactive) | > 100 µM (inactive) | > 100 µM (inactive) | > 100 µM (inactive) | > 100 µM (inactive) | > 100 µM (inactive) | > 100 µM (inactive)
COc1ccc(N(C(=O)Nc2ccc(Cl)c(Cl)c2)C2c3cccn3C(=O)N2c2ccc(Cl)c(Cl)c2)cc1 (stereo unspecified) | > 100 µM (inactive) | 28.6 µM (inactive) | – | 47.8 µM (inactive) | 94 µM | 80.5 µM (inactive) | 36 µM (inactive) | – | > 100 µM (inactive) | 18.3 µM (inactive) | 19.1 µM (inactive) | 30.1 µM (inactive) | > 100 µM (inactive) | > 100 µM (inactive) | 24.9 µM (inactive) | 8.43 µM (inactive) | > 100 µM (inactive) | 43.3 µM (inactive) | > 100 µM (inactive) | > 100 µM (inactive)
COC(=O)c1c(O)ccc2c1c1c(n2Cc2ccc(OC)cc2)C(=O)c2ccccc2C1=O | 3.92 µM (inactive) | 6.46 µM (inactive) | 4.1 µM (inactive) | – | 3.74 µM | 4.91 µM (inactive) | 0.128 µM (active) | 16.1 µM (inactive) | 14.4 µM (inactive) | 14.2 µM (inactive) | 10.7 µM (inactive) | 12.3 µM (inactive) | 39.9 µM (inactive) | 6.21 µM (inactive) | 3.75 µM (inactive) | 12.4 µM (inactive) | 2.78 µM (inactive) | 4.49 µM (inactive) | 26.3 µM (inactive) | 2.4 µM (inactive)
C#CCNC(=O)NCCCC(NC(C)=O)C(=O)NCc1ccccc1 (stereo unspecified) | > 100 µM (inactive) | – | > 100 µM (inactive) | – | > 100 µM | > 100 µM (inactive) | > 100 µM (inactive) | > 100 µM (inactive) | > 100 µM (inactive) | > 100 µM (inactive) | > 100 µM (inactive) | > 100 µM (inactive) | > 100 µM (inactive) | > 100 µM (inactive) | > 100 µM (inactive) | > 100 µM (inactive) | > 100 µM (inactive) | – | > 100 µM (inactive) | > 100 µM (inactive)
O=C1C=C2CCCC2C(C(=O)O)(C(=O)O)C1 (stereo unspecified) | > 100 µM (inactive) | – | > 100 µM (inactive) | – | > 100 µM | > 100 µM (inactive) | > 100 µM (inactive) | > 100 µM (inactive) | > 100 µM (inactive) | > 100 µM (inactive) | > 100 µM (inactive) | > 100 µM (inactive) | > 100 µM (inactive) | > 100 µM (inactive) | > 100 µM (inactive) | > 100 µM (inactive) | > 100 µM (inactive) | – | > 100 µM (inactive) | > 100 µM (inactive)
CCCCCCCCCc1cc(=O)c2c(O)cc(O)cc2o1 | 16.9 µM (inactive) | 18.7 µM (inactive) | 15.1 µM (inactive) | > 100 µM (inactive) | 18.8 µM | 18.5 µM (inactive) | 24.3 µM (inactive) | 15.7 µM (inactive) | 17.3 µM (inactive) | 18.7 µM (inactive) | 18.1 µM (inactive) | 24.3 µM (inactive) | 16.4 µM (inactive) | 16.5 µM (inactive) | 22.6 µM (inactive) | 3.82 µM (inactive) | 22.2 µM (inactive) | – | 19.7 µM (inactive) | 20.2 µM (inactive)
O=C(O)[C@H]1[C@@H](C2CCCCC2)O[C@@H](C2CCCCC2)O[C@H]1C(F)(F)F | 26.2 µM (inactive) | 19.4 µM (inactive) | 52.2 µM (inactive) | 18.2 µM (inactive) | 30.1 µM | 20.9 µM (inactive) | 22.8 µM (inactive) | 20.4 µM (inactive) | 35.7 µM (inactive) | 19.1 µM (inactive) | 17.9 µM (inactive) | 36.2 µM (inactive) | 28.6 µM (inactive) | 16.6 µM (inactive) | 19.3 µM (inactive) | 20.2 µM (inactive) | 17.1 µM (inactive) | – | 32.7 µM (inactive) | 22 µM (inactive)
CC(C)(C)[Si](C)(C)OCCC1CC2(S(=O)(=O)C3=CC=C=C=C3)ON1CC2S(=O)(=O)c1ccccc1 (stereo unspecified) | > 10 µM (inactive) | > 10 µM (inactive) | – | > 10 µM (inactive) | – | > 10 µM (inactive) | 2.56 µM (inactive) | > 10 µM (inactive) | > 10 µM (inactive) | > 10 µM (inactive) | > 10 µM (inactive) | > 10 µM (inactive) | – | > 10 µM (inactive) | > 10 µM (inactive) | > 10 µM (inactive) | > 10 µM (inactive) | > 10 µM (inactive) | > 10 µM (inactive) | > 10 µM (inactive)
COc1cc2c(c(OC)c1OC)-c1ccc(SC)c(=O)cc1[C@@H](NCc1ccc(F)cc1)CC2 | 1.03 µM (active) | – | < 0.0075 µM (active) | – | < 0.0075 µM | < 0.0075 µM (active) | < 0.0075 µM (active) | < 0.0075 µM (active) | < 0.0075 µM (active) | < 0.0075 µM (active) | < 0.0075 µM (active) | 11.6 µM (inactive) | < 0.0075 µM (active) | < 0.0075 µM (active) | < 0.0075 µM (active) | < 0.0075 µM (active) | < 0.0075 µM (active) | – | 0.0117 µM (active) | < 0.0075 µM (active)
COc1cc(C(=O)O[C@H]2CCC3CCC2N3C)cc(OC)c1OC (stereo partly specified) | 43.2 µM (inactive) | > 100 µM (inactive) | – | > 100 µM (inactive) | > 100 µM | > 100 µM (inactive) | > 100 µM (inactive) | – | > 100 µM (inactive) | > 100 µM (inactive) | > 100 µM (inactive) | > 100 µM (inactive) | > 100 µM (inactive) | – | > 100 µM (inactive) | > 100 µM (inactive) | > 100 µM (inactive) | > 100 µM (inactive) | > 100 µM (inactive) | > 100 µM (inactive)
